# Assay results reported in patent US20230092679A1, “MCL-1 INHIBITOR ANTIBODY-DRUG CONJUGATES AND METHODS OF USE” (NOVARTIS AG, priority 2019, published 2023).
# Columns and labels:
# [1] = system: AMO1; assay: CellTiter-Glo proliferation assay (Example 6); assay type: cell-based, human; details: CD48 Mcl-1 ADCs and payload P1, 5 days
# Experimental: Mcl-1 ADCs were tested on nine endogenous cancer cell lines and one isogenic cell line engineered to overexpress a target of interest. Six targets were assessed: HER2, BCMA, CD38, CD48, CD79b, and CD33.
# Cell lines • HER2: HCC1954 (ATCC No. CRL-2338 cultured in RPMI-1640+10% FBS) and HCC2218 (ATCC No. CRL-2343 cultured in RPMI-1640+10% FBS). • BCMA: NCI-H929 (ATCC No. CRL-9068 cultured in RPMI-1640+10% FBS+0.05 mM 2-mercaptoethanol). • CD38: A4-Fuk (JCRB No. JCRB0097 cultured in RPMI-1640+10% FBS) and KMS-21 BM (JCRB No. JCRB1185 cultured in RPMI-1640+10% FBS). • CD48: NCI-H929 (ATCC No. CRL-9068 cultured in RPMI-1640+10% FBS+0.05 mM 2-mercaptoethanol), OPM-2 (DSMZ No. ACC-50 cultured in RPMI-1640+10% FBS) and AMO1 (DSMZ No. ACC-538 cultured in RPMI-1640+20% FBS). • CD79b: RS4;11 (ATCC No. CRL-1873 cultured in RPMI-1640+10% FBS). • CD33: MOLM-13 (DSMZ No. ACC-554 cultured in RPMI-1640+10% FBS) and an isogenic cell line, AMO1-CD33 clone D2. AMO1 cell line was transfected to generate a stable AMO1 cell line expressing the exogenous protein of interest, CD33, AMO1-CD33 clone D2 (cultured in RPMI-1640+20% FBS).
# The ability of Mcl-1 ADCs to inhibit cell proliferation and survival was assessed using a Promega CellTiter-Glo® proliferation assay. Cell lines were cultured in media optimal for their growth at 5% CO2, 37° C. in a tissue culture incubator. Prior to seeding for the proliferation assay, the cells were split at least 2 days before the assay to ensure optimal growth density. On the day of seeding, adherent cells were lifted off tissue culture flasks using 0.25% trypsin. Cell viability and cell density were determined using a cell counter (Vi-Cell XR Cell Viability Analyzer, Beckman Coulter). […] Cells were seeded at a density of 1,000 cells per well in 45 μl of standard growth media. Plates were incubated at 5% CO2, 37° C. overnight in a tissue culture incubator. The next day, free Mcl-1 payload (P1), targeting Mcl-1 ADCs, and non-targeting isotype ADCs were prepared at 10× in standard growth media. The prepared drug treatments were then added to the cells resulting in final concentrations of 0.0005-500 nM and a final volume of 50 μl per well. Each drug concentration was tested in quadruplets. Plates were incubated at 5% CO2, 37° C. for 5 days in a tissue culture incubator, after which cell viability was assessed through the addition of 25 μl of CellTiter Glo® (Promega, Cat. No. G7573), a reagent which lyses cells and measures total adenosine triphosphate (ATP) content. Plates were incubated at room temperature for 10 minutes to stabilize luminescent signals prior to reading using a luminescence reader (EnVision Multilabel Plate Reader, PerkinElmer). […]
# [2] = system: tf1; assay: In vitro ADC activity, AML cell lines, CellTiter-Glo (Example 20); assay type: cell-based; details: tf1, 5 days
smiles,measurement,setting,value
"COc1ccccc1-c1nccc(COc2ccccc2C[C@@H](Oc2ncnc3sc(-c4ccc(F)cc4)c(-c4ccc(OCCN5CCN(C)CC5)c(Cl)c4C)c23)C(=O)O)n1 [P1, (2R)-2-[5-[3-chloro-2-methyl-4-[2-(4-methylpiperazin-1-yl)ethoxy]phenyl]-6-(4-fluorophenyl)thieno[2,3-d]pyrimidin-4-yl]oxy-3-[2-[[2-(2-methoxyphenyl)pyrimidin-4-yl]methoxy]phenyl]propanoic acid]",Amax AMO1,[1],19.97
same,IC50,"[1]; Homo sapiens, AMO1, 120 h",0.038 nM
same,GI50,"[2]; Homo sapiens, TF-1, 120 h",239 nM
same,Amax,[2]; unit assumed,10%
